ChEMBL document CHEMBL4145667, “Targeting Tumor Associated Carbonic Anhydrases IX and XII: Highly Isozyme Selective Coumarin and Psoralen Inhibitors” (ACS Med Chem Lett, 2018)

Experiments:
Carbonic anhydrase 1 = Carbonic anhydrase 1 (Homo sapiens, UniProt P00915); experiment: Binding affinity to human carbonic anhydrase 1 by stopped flow CO2 hydration method
Carbonic anhydrase 2 = Carbonic anhydrase 2 (Homo sapiens, UniProt P00918); experiment: Binding affinity to human carbonic anhydrase 2 by stopped flow CO2 hydration method
Carbonic anhydrase 9 = Carbonic anhydrase 9 (Homo sapiens, UniProt Q16790); experiment: Binding affinity to human carbonic anhydrase 9 by stopped flow CO2 hydration method
Carbonic anhydrase 12 = Carbonic anhydrase 12 (Homo sapiens, UniProt O43570); experiment: Binding affinity to human carbonic anhydrase 12 by stopped flow CO2 hydration method
Carbonic anhydrase 12, sequence (O43570 whole entry): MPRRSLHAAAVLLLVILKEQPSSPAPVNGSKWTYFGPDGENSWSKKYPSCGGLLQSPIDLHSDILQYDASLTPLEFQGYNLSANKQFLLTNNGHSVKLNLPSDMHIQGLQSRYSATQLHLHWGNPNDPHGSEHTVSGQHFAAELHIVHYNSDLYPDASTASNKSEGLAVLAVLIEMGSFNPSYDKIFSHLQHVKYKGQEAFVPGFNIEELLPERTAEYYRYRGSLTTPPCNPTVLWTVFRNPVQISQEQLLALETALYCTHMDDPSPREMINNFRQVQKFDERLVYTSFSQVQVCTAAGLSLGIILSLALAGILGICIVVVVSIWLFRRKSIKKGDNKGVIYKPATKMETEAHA

Carbonic anhydrase 1, sequence (P00915 whole entry): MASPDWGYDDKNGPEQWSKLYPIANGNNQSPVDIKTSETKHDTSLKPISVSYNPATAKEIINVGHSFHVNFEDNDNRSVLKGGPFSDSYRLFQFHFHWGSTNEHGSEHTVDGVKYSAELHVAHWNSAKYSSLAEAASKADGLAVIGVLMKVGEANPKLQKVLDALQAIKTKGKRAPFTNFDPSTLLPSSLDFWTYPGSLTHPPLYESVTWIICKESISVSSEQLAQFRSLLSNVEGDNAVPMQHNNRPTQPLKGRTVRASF

SMILES	Ki (Carbonic anhydrase 1)	Ki (Carbonic anhydrase 2)	Ki (Carbonic anhydrase 9)	Ki (Carbonic anhydrase 12)
Cc1c(CC(=O)Nc2ccc(S(N)(=O)=O)cc2)c(=O)oc2cc3occ(-c4ccc(Cl)cc4)c3cc12	6.83 µM	0.0551 µM	17.8 nM	
COC(=O)Cc1c(C)c2ccc(OCC(=O)c3ccc(Cl)cc3)cc2oc1=O	> 10 µM	> 10 µM	23.6 nM	
COC(=O)Cc1c(C)c2ccc(OCC(=O)c3ccc(C)cc3)cc2oc1=O	> 10 µM	> 10 µM	123 nM	
Cc1c(CC(=O)Nc2ccc(S(N)(=O)=O)cc2)c(=O)oc2cc3occ(-c4ccc(F)cc4)c3cc12	7.15 µM	0.0795 µM	108 nM	
Cc1ccc(-c2coc3cc4oc(=O)c(CC(=O)O)c(C)c4cc23)cc1	> 10 µM	> 10 µM	23 nM	
Cc1c(CC(=O)O)c(=O)oc2cc3occ(-c4ccc(F)cc4)c3cc12	> 10 µM	> 10 µM	17.7 nM	7.4 nM
Cc1ccc(-c2coc3cc4oc(=O)c(CC(=O)Nc5ccc(S(N)(=O)=O)cc5)c(C)c4cc23)cc1	7.07 µM	0.56 µM	91.6 nM	
Cc1c(CC(=O)Nc2ccc(S(N)(=O)=O)cc2)c(=O)oc2cc3occ(-c4ccccc4)c3cc12	7.02 µM	0.0466 µM	16.5 nM	
Cc1c(CC(=O)O)c(=O)oc2cc3occ(-c4ccc(Cl)cc4)c3cc12	> 10 µM	> 10 µM	94.7 nM	
Cc1c(CC(=O)O)c(=O)oc2cc3occ(-c4ccccc4)c3cc12	> 10 µM	> 10 µM	17.5 nM	9.4 nM
COC(=O)Cc1c(C)c2ccc(OCC(=O)c3ccc(F)cc3)cc2oc1=O	> 10 µM	> 10 µM	84.7 nM	
COC(=O)Cc1c(C)c2ccc(OCC(=O)c3ccccc3)cc2oc1=O	> 10 µM	> 10 µM	89.7 nM	
